Data: patent US20230399312A1, “SUBSTITUTED PYRIMIDINES AND METHODS OF USE” (THERAVANCE BIOPHARMA R&D IP, LLC, priority 2020, published 2023)

Columns and labels:
[1] = biological target: T1, recombinant human ALK5 (TGF-βR1) protein (Homo sapiens, UniProt P36897); experiment: Biochemical ALK5 (TGF-βR1) assay to measure pKi (LANCE Ultra ULight kinase assay); settings: apparent pKi, converted from pIC50 by Cheng-Prusoff
T1 construct: purchased Life Technologies PR9075A
T1 sequence (P36897 34-503): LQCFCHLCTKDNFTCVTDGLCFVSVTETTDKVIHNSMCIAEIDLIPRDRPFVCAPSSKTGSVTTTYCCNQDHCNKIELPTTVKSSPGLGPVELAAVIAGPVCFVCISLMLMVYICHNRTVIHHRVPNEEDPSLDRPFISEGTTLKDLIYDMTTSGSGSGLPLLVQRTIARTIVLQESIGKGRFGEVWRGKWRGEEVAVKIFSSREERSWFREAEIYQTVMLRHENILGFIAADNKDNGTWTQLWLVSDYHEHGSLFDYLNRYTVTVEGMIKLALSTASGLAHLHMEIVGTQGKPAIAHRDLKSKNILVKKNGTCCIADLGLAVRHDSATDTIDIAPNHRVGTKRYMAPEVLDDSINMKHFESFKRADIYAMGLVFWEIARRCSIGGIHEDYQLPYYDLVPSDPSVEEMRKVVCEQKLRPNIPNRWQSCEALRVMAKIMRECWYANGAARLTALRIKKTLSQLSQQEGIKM
Outline: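 Europium TR-FRET kinase assay: the enzyme is exposed to compound for 60 min at room temperature, and reaction with ATP runs 60 min at 37 °C. Percent inhibition relative to DMSO and SD-208 controls gives pIC50, which is converted to pKi.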

[2] = tested on: TGF-β-stimulated SMAD3 phosphorylation in BEAS-2B cells; experiment: Cellular ALK5 potency assay, inhibition of TGF-β stimulated pSMAD3 formation in BEAS-2B cells; format: cell-based; settings: Homo sapiens, pSMAD3, TGF-β 10 ng/mL, read-out: BEAS2B pIC50 (converted)
Outline: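 BEAS-2B cells, HBSS/25 mM HEPES/1% BSA buffer; cpd 1 h, 37 °C; TGF-β 10 ng/mL final, 30 min; lysis, AlphaLISA pSMAD3 read next day. pIC50 vs stimulated no-compound baseline.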

In the case of `Cc1cccc(-c2nc(Nc3ccnc(Nc4ccc(NC(=O)C5CNC5)cc4)n3)c3cccn3n2)n1` [Compound 1026, N-[4-[[4-[[2-(6-methyl-2-pyridyl)pyrrolo[2,1-f][1,2,4]triazin-4-yl]amino]pyrimidin-2-yl]amino]phenyl]azetidine-3-carboxamide], the Ki [1] is reported as 0.0398 to 0.316 nM and the IC50 [2] is reported as 25.1 to 158 nM.
Work on `Cc1cccc(-c2nc(Nc3ccnc(Nc4ccc(NC(=O)C5CCNC5)cc4)n3)c3cccn3n2)n1` (stereo not shown) [Compound 1027, N-[4-[[4-[[2-(6-methyl-2-pyridyl)pyrrolo[2,1-f][1,2,4]triazin-4-yl]amino]pyrimidin-2-yl]amino]phenyl]pyrrolidine-3-carboxamide] yielded a Ki [1] of 0.0398 to 0.316 nM and an IC50 [2] of 25.1 to 158 nM.
With `Cc1cccc(-c2nc(Nc3ccnc(Nc4ccc(NC(=O)C5CCNCC5)cc4)n3)c3cccn3n2)n1` [Compound 1028, N-[4-[[4-[[2-(6-methyl-2-pyridyl)pyrrolo[2,1-f][1,2,4]triazin-4-yl]amino]pyrimidin-2-yl]amino]phenyl]piperidine-4-carboxamide] the Ki [1] was 0.0398 to 0.316 nM and the IC50 [2] was 25.1 to 158 nM.
With `Cc1cccc(-c2nc(Nc3ccnc(Nc4ccc(NC(=O)CC5CNC5)cc4)n3)c3cccn3n2)n1` [Compound 1029, 2-(azetidin-3-yl)-N-[4-[[4-[[2-(6-methyl-2-pyridyl)pyrrolo[2,1-f][1,2,4]triazin-4-yl]amino]pyrimidin-2-yl]amino]phenyl]acetamide] the Ki [1] was 0.0398 to 0.316 nM and the IC50 [2] was 25.1 to 158 nM.
Work on `Cc1cccc(-c2nc(Nc3ccnc(Nc4ccc(NC(=O)[C@H]5C[C@@H](N)C5)cc4)n3)c3cccn3n2)n1` [Compound 1030, 3-amino-N-[4-[[4-[[2-(6-methyl-2-pyridyl)pyrrolo[2,1-f][1,2,4]triazin-4-yl]amino]pyrimidin-2-yl]amino]phenyl] cyclobutanecarboxamide] yielded a Ki [1] of 0.0398 to 0.316 nM and an IC50 [2] of 25.1 to 158 nM.
`Cc1cccc(-c2nc(Nc3ccnc(Nc4ccc(NC(=O)C5(CO)CNC5)cc4)n3)c3cccn3n2)n1` [Compound 1031, 3-(hydroxymethyl)-N-[4-[[4-[[2-(6-methyl-2-pyridyl)pyrrolo[2,1-f][1,2,4]triazin-4-yl]amino]pyrimidin-2-yl]amino]phenyl]azetidine-3-carboxamide] was tested, and the Ki [1] was 0.0398 to 0.316 nM and the IC50 [2] was 25.1 to 158 nM.
`Cc1cccc(-c2nc(Nc3ccnc(Nc4ccc(NC(=O)C5CCCNC5)cc4)n3)c3cccn3n2)n1` (stereo not shown) [Compound 1032, N-[4-[[4-[[2-(6-methyl-2-pyridyl)pyrrolo[2,1-f][1,2,4]triazin-4-yl]amino]pyrimidin-2-yl]amino]phenyl]piperidine-3-carboxamide] gave a Ki [1] of 0.0398 to 0.316 nM and an IC50 [2] of 25.1 to 158 nM.
Work on `Cc1cccc(-c2nc(Nc3ccnc(Nc4ccc(C(=O)N5CCC6(CC5)CNC6)cc4)n3)c3cccn3n2)n1` [Compound 1033, 2,7-diazaspiro[3.5]nonan-7-yl-[4-[[4-[[2-(6-methyl-2-pyridyl)pyrrolo[2,1-f][1,2,4]triazin-4-yl]amino]pyrimidin-2-yl]amino]phenyl]methanone] yielded a Ki [1] of 0.0398 to 0.316 nM and an IC50 [2] of 25.1 to 158 nM.
For `Cc1cccc(-c2nc(Nc3ccnc(Nc4ccc(C(=O)NC5CNC5)cc4)n3)c3cccn3n2)n1` [Compound 1034, N-(azetidin-3-yl)-4-[[4-[[2-(6-methyl-2-pyridyl)pyrrolo[2,1-f][1,2,4]triazin-4-yl]amino]pyrimidin-2-yl]amino]benzamide], the Ki [1] was 0.0398 to 0.316 nM and the IC50 [2] was 25.1 to 158 nM.
`Cc1cccc(-c2nc(Nc3ccnc(Nc4ccc(C(=O)NCC5CNC5)cc4)n3)c3cccn3n2)n1` [Compound 1035, N-(azetidin-3-ylmethyl)-4-[[4-[[2-(6-methyl-2-pyridyl)pyrrolo[2,1-f][1,2,4]triazin-4-yl]amino]pyrimidin-2-yl]amino]benzamide] showed a Ki [1] of 0.0398 to 0.316 nM and an IC50 [2] of 25.1 to 158 nM.
`Cc1cccc(-c2nc(Nc3ccnc(Nc4ccc(C(=O)NC5CCNC5)cc4)n3)c3cccn3n2)n1` (stereo not shown) [Compound 1036, 4-[[4-[[2-(6-methyl-2-pyridyl)pyrrolo[2,1-f][1,2,4]triazin-4-yl]amino]pyrimidin-2-yl]amino]-N-pyrrolidin-3-yl-benzamide] was tested, and the Ki [1] was 0.0398 to 0.316 nM and the IC50 [2] was 25.1 to 158 nM.
`Cc1cccc(-c2nc(Nc3ccnc(Nc4ccc(C(=O)NC5CCNCC5)cc4)n3)c3cccn3n2)n1` [Compound 1037, 4-[[4-[[2-(6-methyl-2-pyridyl)pyrrolo[2,1-f][1,2,4]triazin-4-yl]amino]pyrimidin-2-yl]amino]-N-(4-piperidyl)benzamide] gave a Ki [1] of 0.0398 to 0.316 nM and an IC50 [2] of 25.1 to 158 nM.
With `Cc1cccc(-c2nc(Nc3ccnc(Nc4ccc(C(=O)N5CCNCC5)cc4)n3)c3cccn3n2)n1` [Compound 1038, [4-[[4-[[2-(6-methyl-2-pyridyl)pyrrolo[2,1-f][1,2,4]triazin-4-yl]amino]pyrimidin-2-yl]amino]phenyl]-piperazin-1-yl-methanone] the Ki [1] was 0.0398 to 0.316 nM and the IC50 [2] was 25.1 to 158 nM.
For `Cc1cccc(-c2nc(Nc3ccnc(Nc4ccc(C(=O)OCC5CNC5)cc4)n3)c3cccn3n2)n1` [Compound 1039, azetidin-3-ylmethyl 4-[[4-[[2-(6-methyl-2-pyridyl)pyrrolo[2,1-f][1,2,4]triazin-4-yl]amino]pyrimidin-2-yl]amino]benzoate], the Ki [1] was 0.0398 to 0.316 nM and the IC50 [2] was 25.1 to 158 nM.
`Cc1cccc(-c2nc(Nc3ccnc(Nc4ccc(NC5CNC5)cc4)n3)c3cccn3n2)n1` [Compound 1040, N2-[4-(azetidin-3-ylamino)phenyl]-N4-[2-(6-methyl-2-pyridyl)pyrrolo[2,1-f][1,2,4]triazin-4-yl]pyrimidine-2,4-diamine] was tested, and the Ki [1] was 0.0398 to 0.316 nM and the IC50 [2] was 25.1 to 158 nM.
With `Cc1cccc(-c2nc(Nc3ccnc(Nc4ccc(NC5CCNC5)cc4)n3)c3cccn3n2)n1` (stereo not shown) [Compound 1041, N4-[2-(6-methyl-2-pyridyl)pyrrolo[2,1-f][1,2,4]triazin-4-yl]-N2-[4-(pyrrolidin-3-ylamino)phenyl]pyrimidine-2,4-diamine] the Ki [1] was 0.0398 to 0.316 nM and the IC50 [2] was 25.1 to 158 nM.
In the case of `Cc1cccc(-c2nc(Nc3ccnc(Nc4ccc(NC5CCNCC5)cc4)n3)c3cccn3n2)n1` [Compound 1042, N4-[2-(6-methyl-2-pyridyl)pyrrolo[2,1-f][1,2,4]triazin-4-yl]-N2-[4-(4-piperidylamino)phenyl] pyrimidine-2,4-diamine], the Ki [1] is reported as 0.0398 to 0.316 nM and the IC50 [2] is reported as 25.1 to 158 nM.
